Experiment [1] deals with PDE4. Nature of the experiment: Assay I: inhibition of cyclic nucleotide PDE activity (cAMP hydrolysis by PDE4). The experiment is classed as biochemical. To be noted: guinea pig PDE4; 1 μM cAMP substrate; mean±S.E.M.; read-out: PDE4L (IC50) on PDE4 activity. The procedure:
Under a protocol approved by the Animal Care and Use Committee of Taipei Medical University, five male guinea pigs (Hartley), weighing 500-600 g, are sacrificed. The lungs (15 g) or hearts (4 g) taken therefrom are chopped into small pieces and homogenized with a glass/teflon homogenizer (Glas-Col, Terre Haute, Ind., USA) in 10 volumes of cold medium (pH 6.5) containing 20 mM Bis-tris, 2 mM benzamidine, 2 mM EDTA, 50 mM sodium chloride, 0.1 mM phenylmethanesulfonyl fluoride (PMSF), and 1 mM dithiothreitol. At 4 , the homogenate is centrifuged at 170 g for 15 min, and the supernatant thereof is then re-centrifuged at 40,000 g for 30 min. […] The column is washed with two bed volumes of homogenate buffer to remove unbound material, where the resin beads therein will bind with proteins, such as PDE proteins. Proteins bound to the Q-Sepharose beads are eluted with various concentrations (0.23, 0.34, 0.44, 0.69, and 1.00 M) of NaCl dissolved in homogenate buffer (for each concentration, 40-50 mL elution buffer are applied) at a flow rate of 30 ml/h. Fractions (3 ml each) are collected, and ethylene glycol (EG) is added thereto until a final concentration of 30% (v/v). And then the samples are frozen at […].
The activities of PDE4 in the homogenate are measured with a two-step procedure according to the method of Thompson and Appleman, using cAMP with [^3H]-cAMP or cGMP with [^3H]-cGMP as substrates. The PDE enzyme prepared (25 μl) with 10 μl inhibitor or the solvents therefor is incubated for 30 min at 37 °C in a total assay buffer, where the final volume of the assay is amounted to 100 μl. In accordance with the features of the PDE isozymes, the assay buffer contains 50 mM Tris/HCl (pH 7.4), 3 mM MgCl2, 1 mM dithiothreitol, and 0.05% BSA, and optionally contains 1 μM cAMP with 0.2 μCi [^3H]-cAMP as a substrate alone or in the presence of 0.1 unit calmodulin with 10 μM CaCl2, or 5 μM cGMP, and 1 μM cGMP with 0.2 μCi [^3,H]-cGMP as another substrate alone or in the presence of 0.1 unit calmodulin with 10 μM CaCl2.
The PDE enzyme and the inhibitors (or their solvent) therefor are mixed and incubated on ice for 30 min previously, and then mixed with the assay buffer. The assay is initiated by transferring the mixture to a water bath at 37 °C. Following the other 30 min incubation, the reaction is stopped by transferring the reaction vessel to a bath of boiling water for 3 min. After cooling on ice, 20 μl of the 1 mg/ml of Crotalus atrox venom is added to the reaction mixture, and the mixture is incubated at 37 °C for 10 min. The uncatalyzed substrates, such as cAMP, [^3H]-cAMP, cGMP, or [^3H]-cGMP are removed by the addition of 500 μl of a 1-in-1 Tris-HCl (40 mM) buffer suspension of Dowex resin (1×8-200) with incubation on ice for 30 min, since the bindings of the cyclic nucleotides and the resin. Each tube is then centrifuged for 2 min at 6000 rpm (3700 g), and 100 μl of the supernatant is removed and counted by a β-counter for calculating the enzyme (PDEs) activity.
The dissociation constant of inhibitor binding (Ki) value is determined from the equation of apparent Km as a function of the inhibitor concentration (insert in A and B, respectively). The slope of the equation is equal to the value of […] (where KM is Michaelis constant). The amounts of the total proteins are calculated based on the analytical method reported by Bradford. In FIGS. 1A to 1D, all enzyme activities are shown as nmole of substrate per mg of proteins per minute (nmole/mg/min) hydrolyzed.

The target of experiment [2] is T1, high affinity rolipram binding sites (HARBS) of the PDE4 (PDE4H).
T1 construct: other: guinea pig whole brain particulates; 2 nM [3H]-r; guinea pig whole brain particul
Nature of the experiment: Assay II: replacement of [3H]-rolipram bound on particulate HARBS of whole brain. Details: species or system guinea pig. The following applies: guinea pig whole brain particulates, 2 nM [3H]-rolipram, mean±S.E.M., read-out: PDE4H (EC50) for replacing high-affinity [3H]-rolipram binding. As to the method:
(§1) The binding experiments are carried on basis of the methods of Schneider et al and Zhao et al with a small modification. Under a protocol approved by the Animal Care and Use Committee of Taipei Medical University, five male guinea pigs (Hartley), weighing 500-600 g, are anesthetized. The whole brains taken therefrom are homogenized with in 10 volumes of cold medium (pH 6.5) containing 20 mM Bis-tris, 2 mM benzamidine, 2 mM EDTA, 50 mM sodium chloride, 0.1 mM phenylmethanesulfonyl fluoride (PMSF), and 1 mM dithiothreitol. At 4[…], the homogenate is centrifuged at 170 g for 15 min for removing blood vessels and connective tissues, and the supernatant thereof is then re-centrifuged at 40,000 g for 30 min for separating the particulates from the cytosol of cells.
(§2) The final concentration of [^3H]-rolipram is 2 nM. […] After incubation, the reaction is stopped by transferring the reaction vessel to a bath of crashed ice. Then the reaction mixture is filtered through a punched glass fiber filter (Whatman GF/B) placed in a mini funnel, which is adopted to a 1.5 ml of Eppendorff's tube for collecting the filtrate in the mini centrifuge at 1000 rpm (100 g) for 10 seconds. By the same way (centrifugation), it is further washed with 0.3 ml reaction buffer each for three times. The Whatman GF/B filter is mixed with 2 ml of cocktail and counted by the β-scintillation counter (Backman, Fullerton, Calif., USA) for counting the radioactivity thereof.

Experiment [3] deals with high affinity rolipram binding sites (HARBS) of the PDE4 (PDE4H). Described as above. Details: species or system guinea pig. The following applies: ratio of HARBS EC50 to PDE4 IC50. As to the method:
as §1, §2

The subject of a further experiment is PDE4H. The following applies: cited from earlier work; for PDE4H/PDE4L ratio: literature values [23-26].
Experiment [4] concerns PDE4. The following applies: cited from earlier work.

Where two headings read alike, the source gives them in different places.

This is an account of results in patent US20090036518A1, “PHARMACEUTICAL COMPOSITION CONTAINING FLAVONOIDS” (TAIPEI MEDICAL UNIVERSITY, priority 2005, published 2009).

In the case of `COc1cc(O)c2c(=O)c(OC)c(-c3ccc(OC)c(OC)c3)oc2c1` [Quercetin-3,7,3′,4′-O-tetramethylether], the IC50 in the experiment with PDE4 [1] was more than 100 µM. Further, the EC50 in experiment [2] was more than 300 µM.

Turning to `CCCCOc1cc(CC2CNC(=O)N2)ccc1OC` (stereo not drawn) [Ro 20-1724, reference compound], in the experiment on PDE4 [1], the IC50 came to 8.7 ± 1.9 µM. In addition, the EC50 in experiment [2] (reference drugs) worked out at 0.087 ± 0.029 µM.

For `O=c1c(O)c(-c2cc(O)c(O)c(O)c2)oc2cc(O)cc(O)c12` [Myricetin], the IC50 in the experiment on PDE4 [1] came out at 39.8 ± 2.1 µM. Also, in experiment [3], the “PDE4H/PDE4L ratio (EC50/IC50)” value is more than 7.5. The EC50 in experiment [2] is more than 300 µM.

Consider `COc1ccc(-c2coc3cc(O)cc(O)c3c2=O)cc1` [Biochanin A], for which the concentration for half-maximal inhibition (IC50) with PDE4 [1] amounted to 8.5 ± 0.1 µM. Further, in experiment [3], the “PDE4H/PDE4L ratio (EC50/IC50)” value is more than 35. In experiment [2], the EC50 is more than 300 µM.

On to `O=c1cc(-c2ccc(O)c(O)c2)oc2cc(O[C@@H]3O[C@H](CO)[C@@H](O)[C@H](O)[C@H]3O)cc(O)c12` [Luteolin-7-glucoside], for which the “PDE4H/PDE4L ratio (EC50/IC50)” value in experiment [3] is more than 7. Besides, the EC50 in experiment [2] is more than 300 µM.

`COc1ccc([C@]2(C#N)CC[C@@H](C(=O)O)CC2)cc1OC1CCCC1` [cilomilast]: the PDE4H/PDE4L ratio result in the experiment with PDE4H is recorded as “about 1”.

As for `COc1ccc(C2CC(=O)c3c(OC(C)=O)cc(OC(C)=O)cc3O2)cc1OC(C)=O` (stereo not drawn) [Hesperetin-5,7,3′-O-triacetate (HTA), Hesperetin-5,7,3′-O-triacetate], the IC50 in the experiment with PDE4 [1] worked out at 14.4 ± 1.8 µM. Further, in experiment [3], the “PDE4H/PDE4L ratio (EC50/IC50)” value is more than 21. For the same compound, in experiment [2], the EC50 is more than 300 µM.

For `COc1cc(OC)c2c(=O)c(OC)c(-c3ccc(OC)c(OC)c3)oc2c1` [Quercetin-3,5,7,3′,4′-O-petamethylether], in the experiment with PDE4 [1], the IC50 was found to be 5.1 ± 1.4 µM. The “PDE4H/PDE4L ratio (EC50/IC50)” value in experiment [3] was 11. Also, the EC50 in experiment [2] was determined as 56 ± 22.7 µM.

In the case of `COc1cc(O)c2c(c1)OC(c1ccc(OC)c(OC)c1)CC2=O` (stereo not drawn) [Hesperetin-7,3′-O-dimethylether (HDME), Hesperetin-7,3′-O-dimethylether], the IC50 in the experiment with PDE4 [1] was found to be 3 ± 0.9 µM. For the same compound, the “PDE4H/PDE4L ratio (EC50/IC50)” value in experiment [3] is 35.5. In experiment [2], the EC50 was 107 ± 39.5 µM.

`COc1cc(OC)c2c(c1)OC(c1ccc(OC)c(OC)c1)CC2=O` (stereo not drawn) [Hesperetin-5,7,3′-O-trimethylether]: the IC50 in the experiment with PDE4 [1] came to 9.4 ± 2.9 µM. For the same compound, in experiment [3], the “PDE4H/PDE4L ratio (EC50/IC50)” value was found to be 18. Further, the EC50 in experiment [2] was 171 ± 32.9 µM.

As for `O=C(Nc1c(Cl)cncc1Cl)c1ccc(OC(F)F)c(OCC2CC2)c1` [roflumilast], the PDE4H/PDE4L ratio with PDE4H is 3.

On to `COc1ccc(C2CC(=O)c3c(O)cc(O)cc3O2)cc1O` (stereo not drawn) [Hesperetin], for which, in the experiment on PDE4 [1], the IC50 amounted to 28.2 ± 1.1 µM. Also, the EC50 in experiment [2] is more than 300 µM.

As for `COc1cc(O)c2c(=O)c(OC)c(-c3ccc(OC)c(O)c3)oc2c1` [Quercetin-3,7,4′-O-trimethylether], the IC50 with PDE4 [1] was 15.8 ± 4.4 µM. Besides, the “PDE4H/PDE4L ratio (EC50/IC50)” value in experiment [3] is recorded as more than 19. Moreover, the EC50 in experiment [2] is more than 300 µM.

As to `COc1c(-c2ccc(O)c(O)c2)oc2cc(O)cc(O)c2c1=O` [Qercetin-3-O-methylether (3-MQ), Qercetin-3-O-methylether], in the experiment on PDE4 [1], the IC50 was 28.5 ± 5.8 µM. In addition, the “PDE4H/PDE4L ratio (EC50/IC50)” value in experiment [3] is 0.61. The EC50 in experiment [2] is 17.4 ± 4 µM.

For `O=C(Nc1c(Cl)cncc1Cl)C(=O)c1cn(Cc2ccc(F)cc2)c2ccc(O)cc12` [AWD-12-281, N-(3,5-dichloro-pyrid-4-yl)-[1-(4-fluorobenzyl)-5-hydroxy-indole-3-yl]-glyo xylic acid amide], the PDE4H/PDE4L ratio result with PDE4H is on record as “about 11”.

As for `COc1cc(O)c2c(=O)c(-c3ccc(O)cc3)coc2c1` [Prunetin], the IC50 in the experiment with PDE4 [1] is 61.9 ± 17.3 µM. Besides, in experiment [3], the “PDE4H/PDE4L ratio (EC50/IC50)” value is more than 4.8. Moreover, the EC50 in experiment [2] is more than 300 µM.

Regarding `COc1ccc(-c2cc(=O)c3c(O)cc(O)cc3o2)cc1O` [Diosmetin], the IC50 with PDE4 [1] worked out at 20.2 ± 2.4 µM.

Consider `O=c1c(-c2ccc(O)cc2)coc2cc(O)cc(O)c12` [Genistein], for which the IC50 with PDE4 [1] is 9.5 ± 1.9 µM; in the experiment on PDE4 [4] (reported by Nichols and Morimoto [18], read-out: IC50 for PDE4 inhibition), 5 µM. Besides, the half-maximal effective concentration (EC50) in experiment [2] was found to be 47.8 ± 15.9 µM.

Turning to `CC(=O)Oc1cc(OC(C)=O)c2c(=O)c(OC(C)=O)c(-c3ccc(OC(C)=O)c(OC(C)=O)c3)oc2c1` [Quercetin-3,5,7,3′,4′-O-pentaacetate], in the experiment on PDE4 [1], the IC50 was 18.5 ± 4.6 µM. Moreover, the “PDE4H/PDE4L ratio (EC50/IC50)” value in experiment [3] was 4.48. Besides, the EC50 in experiment [2] is 82.8 ± 22.3 µM.

With `COc1c(-c2ccc(OC(C)=O)c(OC(C)=O)c2)oc2cc(OC(C)=O)cc(OC(C)=O)c2c1=O` [Quercetin-3-O-methyl-5,7,3′,4′-O-tetraacetate], the IC50 in the experiment on PDE4 [1] was determined as 3.9 ± 0.6 µM. The “PDE4H/PDE4L ratio (EC50/IC50)” value in experiment [3] is 1. Moreover, in experiment [2], the EC50 amounted to 3.9 ± 1.4 µM.

Consider `COc1ccc(C2CNC(=O)C2)cc1OC1CCCC1` (stereo not drawn) [Rolipram, reference compound], for which the EC50 is […] in the experiment on PDE4H (literature [23], read-out: EC50 for binding PDE4H) and 0.0052 ± 0.0019 µM in experiment [2] (reference drugs). Further, the PDE4H/PDE4L ratio in the experiment with PDE4H was […]. Moreover, the IC50 with PDE4 [1] was […]; in the experiment on PDE4 [4] (literature [23], read-out: IC50 for binding PDE4L), […]. The “PDE4H/PDE4L ratio (EC50/IC50)” value in experiment [3] is given as […].

Regarding `O=c1c(O)c(-c2ccc(O)c(O)c2)oc2cc(O)cc(O)c12` [Quercetin], the IC50 with PDE4 [1] stood at 9.9 ± 2.5 µM. Besides, the “PDE4H/PDE4L ratio (EC50/IC50)” value in experiment [3] is more than 30. The EC50 in experiment [2] is more than 300 µM.

The term IC50 denotes the concentration needed to halve the response being measured. One may read the EC50 as the concentration at which the effect is half-maximal.
